Values joined by “and” are separate entries in the source; they are usually repeats but may differ in a detail not shown here. Equal entries are not always repeated. “Also recorded” adds a separate entry of the source. Where two headings read alike, the source gives them in different places. Marks after values point to notes of the source that are not given here.
Assays:
[1] = system: P. alcaligenes strain DIP1; assay: Induction of CphEal production in cultures of strain DIP1; type: cell-based
Description: The activity of the cyanophycinase (CphEal) was inspected by formation of degradation halos on CGP-overlay agar plates by small aliquots of concentrated enzyme solutions, for this, 5 ml culture samples were centrifuged at 2800×g for 30 min (Megafuge 1.0 R, Heraeus Sepatech GmbH, Osterode, Germany) and 4 ml of the resulting supernatant were concentrated 100 folds by ultrafiltration. For the quantitative determination of the enzyme in culture samples, a photometric method was developed as follows; 2 μl of the concentrated culture supernatant were added to 1 ml of a CGP suspension (100 mg l^−1) and incubated at 30° C. for 30 min in a tube rotator (3 rpm, type 502 S, Watson-Marlow GmbH, Rommerskirchen, Germany). Finally, OD600 nm of samples was measured to indicate the decrease in CGP amount due to degradation; this in turn was used to indicate the concentration of CphEal in solutions through the respective calibration curve.
To conclude the optimum cultivation conditions for maximum production of CphEal by strain DIP1, cells were cultivated on different concentrations of citrate under optimum growth conditions, when cells reached the stationary phase; CphEal production was induced by the addition of 0.25 g CGP.
During the following 5 h, supernatant samples were concentrated (100 folds) and screened for degradation activity on CGP-overlay agar plates as well as photometrically.
All inductors were tested first at a concentration of 0.25 g l^−1 and CphEal production was assayed on CGP-overlay agar plates and also photometrically.

[2] = system: purified CphEal from P. alcaligenes strain DIP1; assay: Effect of group-specific inhibitors on purified CphEal, HPLC analysis of CGP degradation products; type: biochemical; settings: for HPLC analysis (Inhibition %) high inhibitor concentration: high concentration (mM): Leupeptin 0.01, EDTA 60, Pefabloc 80, PMSF 10, NBS 5; for HPLC analysis (Inhibition %) high inhibitor concentration / HPLC analysis (Inhibition %) low inhibitor concentration: 2 h at 30° C., refers to control without inhibitor; for HPLC analysis (Inhibition %) low inhibitor concentration: low concentration (mM): Leupeptin 0.001, EDTA 30, Pefabloc 8, PMSF 1, NBS 1
Description: (§1) To reveal the effect of enzyme inhibitors on the purified CphEal, 50 μl aliquots of the purified enzyme stalk solution were added to 450 μl of Na-phosphate buffer (50 mM) and incubated for 2 h at 30° C. in the presence of one of the following Group-specific inhibitors; Leupeptin (thiol-proteases), EDTA (metalloproteases), Pefabloc (serine-proteases), PMSF (serine-proteases) or N-bromosuccinimide (tryptophan residues).
(§2) To gain information on the catalytic mechanism of CphEal, inhibitor experiments were conducted employing different group-specific inhibitors (Table 1).

[3] = system: purified CphEal from P. alcaligenes strain DIP1; assay: Effect of group-specific inhibitors on purified CphEal, activity on CGP-overlay agar plates; type: biochemical; settings: for Inhibition of CphEal (in words): assayed on CGP-overlay agar plates and by HPLC analysis
Description: as §1, §2

[4] = system: Caco2 cells (human-colon epithelial adenocarcinoma cells); assay: Absorption of CGP dipeptides by Caco2-cell cultures; settings: after 113 h of incubation; medium with 350 μg/ml CGP dipeptides (90% Asp-Arg: 10% Asp-Lys)
Description: (§3) A Dulbecco's Modified Eagle Medium (DMEM) containing 20% Fetal Calf Serum (FCS) and 1% of 2 mM Glutamine solution was used as cultivation medium. About 7000 Caco2 cells per well were disseminated in a 24-well plate and incubated at 37° C. under an atmosphere of 5% CO2 and about 98% humidity. The cells were checked microscopically on a daily basis until forming monolayer after nearly 50 h. […] A well line was supplied with fresh 700 μl of the incubation medium without the latter additives and was considered as control. Samples were taken after incubation periods of 0, 13, 22, 67 and 113 h and were analyzed by HPLC as described by Sallam and Steinbüchel (J. App. Microbiol. DOI: 10.1111/j.1365-2672.2009.04221.x) to determine the change of concentrations of the tested dipeptides and amino acids.

[5] = system: Caco2 cells (human-colon epithelial adenocarcinoma cells); settings: Caco-2, 113 h
Description: as §3

[6] = low dose intravenous (IV) infusion; cited from earlier work
[7] = 250 mg/kg/day oral for seven days, five healthy subjects aged 20 to 35; cited from earlier work
CGP = settings: data from literature, cited from earlier work

N[C@@H](CC(=O)O)C(=O)O [L-aspartic acid]
CphEal production after induction in comparison to cultures induced with optimum CGP concentration (0.05 g l^−1) ([1]; 4 g l^−1 aspartate, 5 h): only the third
Time after induction at which maximum CphEal production was obtained ([1]; at optimum inductor concentration): 5 h
Inductor concentration giving maximum CphEal production ([1]; cultures of strain DIP1 under optimal production conditions): 4 g/L
Induction of CphEal production ([1]; inductors tested at 0.25 g l^−1, CGP-overlay agar plates and photometrically): induced significant amounts

O=C1CCC(=O)N1Br [NBS, N-bromosuccinimide]
HPLC analysis (Inhibition %) high inhibitor concentration [2]: 100%
HPLC analysis (Inhibition %) low inhibitor concentration [2]: 100%
Inhibition of CphEal (in words) [3]: totally inhibited; also recorded: total inhibition

NC(N)=NCCC[C@H](NC(=O)C[C@H](N)C(=O)O)C(=O)O [cyanophycin Asp-Arg dipeptides, β-aspartate-arginine]
Absorption by Caco2 cells (HPLC analysis of the medium samples) [4]: approximately 60%

O=S(=O)(F)Cc1ccccc1 [PMSF, Phenylmethylsulfonylfluoride]
HPLC analysis (Inhibition %) high inhibitor concentration [2]: 57%
HPLC analysis (Inhibition %) low inhibitor concentration [2]: 0%
Inhibition of CphEal (in words) [3]: largely inhibited; also recorded: strongly inhibited

NCCCC[C@H](N)C(=O)O [free L-lysine, L-lysine]
Absorption by Caco2 cells (HPLC analysis of the medium samples) [5]: 51%

NCCCC[C@H](NC(=O)C[C@H](N)C(=O)O)C(=O)O [cyanophycin Asp-Lys dipeptides, β-aspartate-lysine]
Absorption by Caco2 cells (HPLC analysis of the medium samples) [4]: 68%

CC(=O)N[C@@H](CC(C)C)C(=O)N[C@@H](CC(C)C)C(=O)N[C@H](C=O)CCCNC(=N)N [Leupeptin]
HPLC analysis (Inhibition %) high inhibitor concentration [2]: 39%
HPLC analysis (Inhibition %) low inhibitor concentration [2]: 10%
Formation of degradation halos by CphEal on CGP-overlay agar plates in presence of inhibitor [3]: no activity inhibition
Formation of degradation halos by CphEal on CGP-overlay agar plates in presence of inhibitor ([3]; listed as leupeptin): not affected

Cl.NCCc1ccc(S(=O)(=O)F)cc1 [Pefabloc ®, 4-(2-aminoethyl) benzensulfonylfluoride•HCl]
HPLC analysis (Inhibition %) high inhibitor concentration [2]: 100%
HPLC analysis (Inhibition %) low inhibitor concentration [2]: 91%
Inhibition of CphEal (in words) ([3]; listed as Pefabloc): strongly inhibited
Inhibition of CphEal (in words) ([3]; listed as Pefabloc®): largely inhibited

N=C(N)NCCC[C@H](N)C(=O)O [free arginine, L-arginine]
Serum GH levels [6]: significant increase
Absorption by Caco2 cells (HPLC analysis of the medium samples) [5]: 41%

L-Arginine-L-Aspartate [arginine aspartate]
Rise in GH during slow wave sleep [7]: 60%

O=C(O)CN(CCN(CC(=O)O)CC(=O)O)CC(=O)O [EDTA]
HPLC analysis of inhibitor-treated samples (in words) [2]: showed inhibition
HPLC analysis (Inhibition %) high inhibitor concentration [2]: 75^c %
HPLC analysis (Inhibition %) low inhibitor concentration [2]: 65^c %
Inhibition of the CGPase, HPLC analysis of samples treated with EDTA ([2]; stated to be due to precipitates during OPA-derivatization): about 75%
Formation of degradation halos by CphEal on CGP-overlay agar plates in presence of inhibitor [3]: no activity inhibition; also recorded: not affected

B1: CphB: intracellular cyanophycinase of Synechocystis sp. PCC 6803 (protein, UniProt P73832 2-271, looked up)
Cyanophycinase: PLSSQPAILIIGGAEDKVHGREILQTFWSRSGGNDAIIGIIPSASREPLLIGERYQTIFSDMGVKELKVLDIRDRAQGDDSGYRLFVEQCTGIFMTGGDQLRLCGLLADTPLMDRIRQRVHNGEISLAGTSAGAAVMGHHMIAGGSSGEWPNRALVDMAVGLGIVPEIVVDQHFHNRNRMARLLSAISTHPELLGLGIDEDTCAMFERDGSVKVIGQGTVSFVDARDMSYTNAALVGANAPLSLHNLRLNILVHGEVYHQVKQRAFPRVT
Mechanism (CGP; cell wrapped: Exo-peptidase): Exo-
CGP degradation products (CGP): β-Asp-Arg
Inhibitors (CGP): PMSF, and 3,4-dichloro- and Pefabloc ®,
Optimum pH range (CGP): 7-8^
Optimum temperature (CGP): 35 °C

Source: US8980845B2, “Biotechnological production of cyanophycin dipeptides” (Westfälische Wilhelms-Universität Münster, priority 2008, dated 2015)
